Drawing on patent US12466834B2, “Imidazodiazepinediones and methods of use thereof” (GFB (ABC), LLC, priority 2018, dated 2025), this text covers IC50 for 17 compounds.

Molecules are shown by their SMILES. pIC50: −log10 of the molar value. Some results are limits rather than exact numbers.

The target of the first test is T1, human TRPC5 (Homo sapiens, UniProt Q9UL62).
T1 construct: expressed in transfected cells
T1 sequence (Q9UL62 1-973): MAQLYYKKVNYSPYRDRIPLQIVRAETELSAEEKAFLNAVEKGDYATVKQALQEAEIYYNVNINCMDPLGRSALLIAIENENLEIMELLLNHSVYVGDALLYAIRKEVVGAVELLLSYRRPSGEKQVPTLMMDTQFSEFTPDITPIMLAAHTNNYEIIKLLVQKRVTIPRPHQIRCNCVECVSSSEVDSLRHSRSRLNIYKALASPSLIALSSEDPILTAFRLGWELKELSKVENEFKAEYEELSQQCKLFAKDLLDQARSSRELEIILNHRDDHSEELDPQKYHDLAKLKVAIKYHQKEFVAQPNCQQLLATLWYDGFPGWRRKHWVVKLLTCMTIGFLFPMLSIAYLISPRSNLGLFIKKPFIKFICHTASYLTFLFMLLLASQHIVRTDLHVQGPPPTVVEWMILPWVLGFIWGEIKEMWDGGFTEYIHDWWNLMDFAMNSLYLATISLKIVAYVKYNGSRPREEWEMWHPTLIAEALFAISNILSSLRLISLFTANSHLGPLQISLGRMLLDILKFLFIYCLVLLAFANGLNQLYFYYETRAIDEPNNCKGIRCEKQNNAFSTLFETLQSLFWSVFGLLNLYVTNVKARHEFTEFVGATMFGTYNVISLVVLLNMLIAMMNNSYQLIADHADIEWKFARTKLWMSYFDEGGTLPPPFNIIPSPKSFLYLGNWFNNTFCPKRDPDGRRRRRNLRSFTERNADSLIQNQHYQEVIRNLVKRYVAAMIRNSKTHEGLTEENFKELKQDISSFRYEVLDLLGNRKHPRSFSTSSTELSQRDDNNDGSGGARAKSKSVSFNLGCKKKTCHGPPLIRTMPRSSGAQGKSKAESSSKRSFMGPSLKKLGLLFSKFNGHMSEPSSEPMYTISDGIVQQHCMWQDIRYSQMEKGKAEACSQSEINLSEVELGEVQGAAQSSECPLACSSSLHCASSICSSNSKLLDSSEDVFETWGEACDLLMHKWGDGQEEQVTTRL
Nature of the test: Automated patch clamp assay (QPatch), antagonist mode. The format is cell-based. The conditions noted are these: HEK-TREx hTRPC5 cells; channel activated with Rosiglitazone 30 μM; normalised to ML-204 block; read-out: Qpatch Potency Range. As to the method:
(§1) ICLN-1633 cells (HEK-TREx hTRPC5) expressing TRPC5 were generated as follows. Commercially available HekTrex-293 cells were seeded at 0.7×10^6 cells/well in a 1×6-well plate 24 hrs prior to transfection using 2 mL cell growth media containing no antibiotics (1× DMEM/high glucose (Hyclone #SH30022.02); 10% fetal bovine serum (Sigma) 2 mM sodium pyruvate, 10 mM HEPES). The human TRPC5 coding sequence (NM_012471 with a silent T478C mutation) was cloned into pcDNA5/TO (Invitrogen; Cat No. V103320) using hygromycin as the resistance gene and the plasmid (SEQ ID NO:1) propagated using T-Rex-293 cells (Invitrogen; Cat No. R71007) following manufacturer's directions. On day 2, 2 μg of plasmid DNA plus 6 μl of Xtreme-GENE HP reagent in Optimem (200 μl total volume) was prepared and incubated for 15 min at room temperature. This plasmid solution was then gently overlayed dropwise onto each well and the plate was gently swirled to mix complex with the media for approximately 30 seconds. Transfected cells were incubated at 37° C. in a 10% CO2 incubator for 24 hrs. The transfected cells were harvested and transferred into 2×150 mm dishes containing cell growth media with no antibiotics at 37° C.
The next day selection was initiated to generate a stable pool by adding cell growth media containing 150 μg/mL Hygromycin and 5 μg/mL Blasticidin and cells were allowed to grow. Media with the selection agent was changed every 1-2 days as needed to remove dead cells. After 7 days, the hygromycin concentration was reduced to 75 μg/mL and cells growth was allowed to continue.
Single clones were selected as follows. The stable pool was diluted to 10 cells/mL and seeded (100 μl/well) into 24×96 well plates (˜1 cell/well) and allowed to grow for 7 days in cell growth media. Fresh media (100 μl) was added and the cells allowed to grow for another 1-2 weeks and then stored frozen or used immediately.
The automated electrophysiological assay was carried out at room temperature. On the day of the experiment, TRPC5 cells were cultured according to our Standard Operating Procedure. Briefly, cells were harvested using TrypLE™ Express, re-suspended in serum free medium, added to the automated platform and used within 0.5-3 hours. Internal and external physiological solutions were freshly prepared prior to the assay. The external solution contained: 145 mM NaCl, 4 mM KCl, 2 mM CaCl2, 1 mM MgCl2, 10 mM HEPES, 10 mM glucose, pH 7.4 with NaOH and 310 mOsm/L. The internal solution contained 120 mM L-aspartic acid, 120 mM CsOH·H2O, 20 mM CsCl, 2 mM MgCl2, 8.8 mM CaCl2, 10 mM EGTA, 10 mM HEPES and 2 mM Na2ATP; pH 7.2 with CsOH and 330 mOsm/L. The free internal Ca^2+ concentration was buffered to 1 μM, according to the WCabuf software. The automated electrophysiological platform QPatch 16 from Sophion (Denmark) was used to carry out the compounds profiling. The series resistance and quality of seals were continuously monitored during the experiments. Data were analyzed using Sophion QPatch assay software 5.6 (Odense). Data were normalized using the maximum activation obtained during the pre-compound agonist application as the top value (1.0) and maximum inhibition induced by ML-204 as the bottom value (0.0). IC50 values were calculated using a least squares regression algorithm (Hill equation).
To monitor the ion currents, a voltage ramp from −100 mV to +100 mV, over 300 ms, was applied every 10 seconds, from a holding potential of −60 mV. Antagonist-mode: After recording for a minimum of 60 seconds control period, the EC60 concentration of the TRPC5 agonist, Rosiglitazone (30 μM), was applied to activate the channel. After reaching steady-state, co-application of increasing concentrations of test compound were applied followed by two applications of Rosiglitazone EC60 and a saturating concentration of the specific blocker ML-204 (100 μM).
On the technique in general: In patch-clamp work, channel activity is measured electrically.
`CN1C(=O)CN(CCCO)C(=O)c2c1nc(Oc1cccc(OC(F)(F)F)c1)n2Cc1ccc(Cl)cc1` [Compound 2, 1-[(4-chlorophenyl)methyl]-7-(3-hydroxypropyl)-4-methyl-2-[3-(trifluoromethoxy)phenoxy]-1H,4H,5H,6H,7H,8H-imidazo[4,5-e][1,4]diazepine-5,8-dione]: the pIC50 was 4.52 to 6.00.
For `CN1CCN(CCCO)C(=O)c2c1nc(Oc1cccc(OC(F)(F)F)c1)n2Cc1ccc(Cl)cc1` [Compound 1, 1-[(4-chlorophenyl)methyl]-7-(3-hydroxypropyl)-4-methyl-2-[3-(trifluoromethoxy)phenoxy]-1H,4H,5H,6H,7H,8H-imidazo[4,5-e][1,4]diazepin-8-one], the pIC50 was 4.52 to 6.00.
Turning to `CN1C(=O)CN([C@H]2C[C@H](O)C2)C(=O)c2c1nc(Oc1cccc(OC(F)(F)F)c1)n2Cc1ccc(Cl)cc1` [Compound 13], the pIC50 is 4.52 to 6.00.
In the case of `CCCCn1c(Oc2cccc(F)c2)nc2c1C(=O)N(CCCO)C(=O)[C@@H]1CCCN21` (single isomer, unassigned) [Compound 24], the pIC50 was 6.00 to 9.00.
In the case of `CN1C(=O)CN(CC(O)CO)C(=O)c2c1nc(Oc1cccc(OC(F)(F)F)c1)n2Cc1ccc(Cl)cc1` (stereo not shown) [Compound 9, 1-[(4-chlorophenyl)methyl]-7-(2,3-dihydroxypropyl)-4-methyl-2-[3-(trifluoromethoxy)phenoxy]-1H,4H,5H,6H,7H,8H-imidazo[4,5-e][1,4]diazepine-5,8-dione], the pIC50 was 4.52 to 6.00.
With `CN1C(=O)[C@H](CCO)N(C)C(=O)c2c1nc(Oc1cccc(OC(F)(F)F)c1)n2Cc1ccc(Cl)cc1` (single isomer, unassigned) [Compound 17], the pIC50 was under 4.52.

The next test addresses T1, human TRPC5. Nature of the test: FLIPR calcium assay, inhibition of riluzole-activated TRPC5 calcium response. The format is cell-based. To be noted: ICLN-1633 cells; riluzole 30 μM stimulation; Fluo-4 calcium response; read-out: Inhibitor Potency Range (FLIPR). Here is the method: as §1
Compounds were made up to, or supplied as a 10 mM stock solution generally using DMSO as the vehicle. 10-point dose response curves were generated using the Echo-550 acoustic dispenser. Compound source plates were made by serially diluting compound stocks to create 10 mM, 1 mM, and 0.1 mM solutions in DMSO into Echo certified LDV plates. The Echo then serially spotted 100% DMSO stock solutions into source dose response plates to generate a 4-fold dilution scheme. 100% DMSO was added to the spotted dose response plates to bring the final volume to 5 μl. 300 nl of the dose response stock plate was then spotted into pre-incubation and stimulation assay plates. 50 μl of pre-incubation buffer and 100 μl of stimulation buffer was then added to the plates resulting in a final assay test concentration range of 30 μM to 0.0001 μM with a final DMSO concentration of 0.3%.
Human ICLN-1633 cells expressing were plated onto 384 well, black poly-D-lysine-coated microplates and maintained in TRPC5 growth media the day prior to use for experiments. TRPC5 expression was induced by the application of 1 μg/mL tetracycline at the time of plating. Media was removed from the plates and 10 μl of 4 μM of Fluo-4 AM (mixed with equal volume of Pluronic F-127) in Earls's Balanced Salt Solution (EBSS) was added to the cells. Cells were incubated at room temperature, protected from light, for 60-90 minutes. After the incubation period, the dye was removed and replaced with 10 μl of EBSS. Cell, pre-incubation and stimulation plates were loaded onto the FLIPR-II and the assay was initiated. The FLIPR measured a 10 second baseline and then added 10 μl of 2× compounds (or controls). Changes in fluorescence were monitored for an additional 5 minutes. After the 5 minute pre-incubation, 20 μl of 2× riluzole (with 1× compound or controls) was added to the cell plate. The final riluzole stimulation concentration in the assay was 30 μM. After the riluzole addition, changes in fluorescence were monitored for an additional 5 minutes. Reduction in the riluzole-activated calcium response relative to control wells was reported as inhibition. A compound-mediated increase in the riluzole response relative to control riluzole response (no test agent present) with no enhancement of calcium entry during preincubation phase was reported as an agonist response.
Compound inhibition of TRPC5 calcium response was determined as follows. After the riluzole addition, fluorescence was monitored for a 5-minute period. For inhibition, the maximum relative fluorescence response (minus the control response of 1 μM of an internal control compound known to maximally block TRPC5 calcium response, the “REF INHIB” in the formula below) was captured and exported from the FLIPR. […]
`CN1C(=O)CN([C@H]2CC[C@H](O)C2)C(=O)c2c1nc(Oc1cccc(OC(F)(F)F)c1)n2Cc1ccc(Cl)cc1` (single isomer, unassigned) [Compound 16]: the pIC50 is 5.00 to 6.00.
As to `CN1C(=O)CN(CCCO)C(=O)c2c1nc(Oc1cccc(OC(F)(F)F)c1)n2Cc1ccc(Cl)cc1` [Compound 2, 1-[(4-chlorophenyl)methyl]-7-(3-hydroxypropyl)-4-methyl-2-[3-(trifluoromethoxy)phenoxy]-1H,4H,5H,6H,7H,8H-imidazo[4,5-e][1,4]diazepine-5,8-dione], the pIC50 is 5.00 to 6.00.
Take `CN1C(=O)CN(CCCO)C(=O)c2c1nc(Oc1cccc(F)c1)n2Cc1ccc(Cl)cc1` [Compound 4]: the pIC50 is 5.00 to 6.00.
Still for that read-out and setting: under `CCCCn1c(Oc2cccc(F)c2)nc2c1C(=O)N(CCCO)C(=O)[C@@H]1CCCN21` (single isomer, unassigned) [Compound 24] stands 6.00 to 9.00.
With `O=C1c2c(nc(Oc3cccc(OC(F)(F)F)c3)n2Cc2ccc(Cl)cc2)N2CCC[C@@H]2CN1CCCO` (single isomer, unassigned) [Compound 34], the pIC50 was 6.00 to 9.00.
On the same count and under the same terms, the result for `O=C1c2c(nc(Oc3cccc(F)c3)n2Cc2ccc(Cl)cc2)N2CCC[C@H]2C(=O)N1CCCO` [Compound 26] reads 6.00 to 9.00; that for `CCCCn1c(Oc2cccc(OC(F)(F)F)c2)nc2c1C(=O)N(CCCO)CC(=O)N2C` [Compound 3], 5.00 to 6.00; that for `CN1C(=O)CN(CCO)C(=O)c2c1nc(Oc1cccc(OC(F)(F)F)c1)n2Cc1ccc(Cl)cc1` [Compound 10, 1-[(4-chlorophenyl)methyl]-7-(2-hydroxyethyl)-4-methyl-2-[3-(trifluoromethoxy)phenoxy]-1H,4H,5H,6H,7H,8H-imidazo[4,5-e][1,4]diazepine-5,8-dione], 5.00 to 6.00.
Turning to `CCCCn1c(Oc2cccc(Cl)c2)nc2c1C(=O)N(CCCO)C(=O)[C@@H]1CCCN21` [Compound 32], the pIC50 is 6.00 to 9.00.
As to `COCCCN1CC(=O)N(C)c2nc(Oc3cccc(OC(F)(F)F)c3)n(Cc3ccc(Cl)cc3)c2C1=O` [Compound 8, 1-[(4-chlorophenyl)methyl]-7-(3-methoxypropyl)-4-methyl-2-[3-(trifluoromethoxy)phenoxy]-1H,4H,5H,6H,7H,8H-imidazo[4,5-e][1,4]diazepine-5,8-dione], the pIC50 was 5.00 to 6.00.
On the same count and under the same terms, the result for `O=C1c2c(nc(Oc3cccc(OC(F)(F)F)c3)n2Cc2ccc(Cl)cc2)N2CCC[C@H]2CN1CCCO` (single isomer, unassigned) [Compound 35] reads 5.00 to 6.00; that for `O=C1c2c(nc(Oc3cccc(Cl)c3)n2Cc2ccc(Cl)cc2)N2CCC[C@H]2C(=O)N1CCCO` [Compound 33], 6.00 to 9.00.
On to `CN1C(=O)CN([C@@H]2CC[C@@H](O)C2)C(=O)c2c1nc(Oc1cccc(OC(F)(F)F)c1)n2Cc1ccc(Cl)cc1` (single isomer, unassigned) [Compound 15], for which the pIC50 was 6.00 to 9.00.
